Series [1] can be described thus: Half life in human serum. The series is classed as ADME, cell-free.
Series [2] deals with T1, Mu-type opioid receptor (Homo sapiens, UniProt P35372). Put plainly: Displacement of [3H]DAMGO from human recombinant mu-opioid receptor expressed in CHO cells after 60 mins by liquid scintillation assay. The format is cell-based. On the technique in general: Loss of bound radioactivity is the signal in a displacement assay; it reports binding, not function.
For series [3], the target named is T1, Mu-type opioid receptor. Nature of the series: Agonist activity at human recombinant mu-opioid receptor expressed in CHO cells after 60 mins by [35S]GTPgammaS binding assay. The format is functional, cell-based. Background: Binding of GTPγS marks nucleotide exchange on a G protein.

The source made the active and inactive calls.

T1 sequence (P35372 whole entry): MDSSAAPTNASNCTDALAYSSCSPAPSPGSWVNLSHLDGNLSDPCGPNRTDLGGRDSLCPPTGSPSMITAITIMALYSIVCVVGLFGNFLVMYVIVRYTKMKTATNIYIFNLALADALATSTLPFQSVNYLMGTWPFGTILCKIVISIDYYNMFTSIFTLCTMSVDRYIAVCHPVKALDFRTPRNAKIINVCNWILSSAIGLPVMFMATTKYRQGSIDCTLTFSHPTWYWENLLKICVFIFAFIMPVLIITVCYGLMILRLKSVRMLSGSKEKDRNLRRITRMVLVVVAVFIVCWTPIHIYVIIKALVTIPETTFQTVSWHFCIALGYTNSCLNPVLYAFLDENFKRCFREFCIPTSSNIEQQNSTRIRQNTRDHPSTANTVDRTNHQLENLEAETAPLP

For the molecule `CC(C)C[C@H](CN(C=O)[C@H](Cc1ccccc1)CN(C=O)CCN(C=O)CCN(C=O)[C@@H](CN)Cc1ccc(O)cc1)NS(C)(=O)=O`, the half-life (commonly the time needed for the level to fall by half in the phase considered) in series [1] was 41 h. On Mu-type opioid receptor [2], the concentration for half-maximal inhibition (IC50) (in general, the concentration needed to halve the response being measured) stood at 3200 nM and the Ki (as a rule, a measure of affinity in units of concentration, obtained from inhibition or displacement) is 400 nM. Moreover, on Mu-type opioid receptor [3], the result was inactive.

The values are drawn from ChEMBL document CHEMBL2157908, “Formylated polyamines as peptidomimetics” (Bioorg Med Chem Lett, 2012).
